Test results: paper PMC4010472, “Pharmacokinetics and Efficacy of Topically Applied Nonsteroidal Anti-Inflammatory Drugs in Retinochoroidal Tissues in Rabbits” (PLoS ONE, 2014)
“Also recorded” adds a separate entry of the source. Read-outs that look alike come from different tables or passages of the source.

Legend:
[1] = rabbit, in vivo
[2] = tested on: laser-induced choroidal neovascularization; parameters: method as in PMID 21709668; conditions: topical, rats ref 17; cited from earlier work
COX-1 = conditions: cited from earlier work
retinal PGE2 = conditions: topical, lipopolysaccharide-injected rats ref 41; cited from earlier work
human COX-2 = target: T1, human COX-2 (Homo sapiens, UniProt P35354); assay: COX-2 inhibitory activity, human recombinant COX-2, PGE2 EIA; type: biochemical; conditions: for IC50: human recombinant COX-2, 0.3 µM arachidonic acid, PGE2 EIA, read-out: IC50 COX-2, [95% Confidence interval]
T1 construct: purchased Sigma-Aldrich; host or cells: baculovirus-infected Sf21 cells
T1 sequence (P35354 18-604): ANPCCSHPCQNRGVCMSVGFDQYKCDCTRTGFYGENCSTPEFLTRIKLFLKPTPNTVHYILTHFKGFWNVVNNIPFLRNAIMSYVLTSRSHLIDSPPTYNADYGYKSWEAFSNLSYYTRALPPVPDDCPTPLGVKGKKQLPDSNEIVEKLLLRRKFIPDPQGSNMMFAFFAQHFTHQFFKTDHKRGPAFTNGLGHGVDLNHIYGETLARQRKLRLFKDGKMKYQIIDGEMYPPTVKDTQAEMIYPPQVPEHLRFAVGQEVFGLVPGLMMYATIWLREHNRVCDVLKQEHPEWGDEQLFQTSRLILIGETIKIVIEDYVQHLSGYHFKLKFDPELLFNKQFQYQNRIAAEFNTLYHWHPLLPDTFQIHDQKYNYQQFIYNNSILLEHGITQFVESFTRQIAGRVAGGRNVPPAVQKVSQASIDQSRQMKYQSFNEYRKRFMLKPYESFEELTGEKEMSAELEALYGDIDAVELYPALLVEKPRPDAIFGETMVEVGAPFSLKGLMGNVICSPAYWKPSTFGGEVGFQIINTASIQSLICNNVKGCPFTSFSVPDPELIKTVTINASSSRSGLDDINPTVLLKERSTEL
Protocol: (§1) The endogenous human COX-1 inhibitory activity was assayed by a published method with a slight modification, using venous blood of healthy volunteers with a written informed consent (obtained from Taipei Blood Center, Taipei, Taiwan). Test samples (0.3 to 1000 nM) and vehicle (1% dimethyl sulfoxide in the final assay) were pre-incubated with washed human platelets (5×10^7/mL) in modified buffer (Hanks' balanced salt solution with 15 mM HEPES, pH 7.4) for 15 minutes at 37°C. Arachidonic acid (100 µM, Cayman Chemical Co., Ann Arbor, MI) was added to initiate the reaction, and samples were incubated for an additional 15 minutes at 37°C. At the end of the incubation period, the reaction was terminated by the addition of 1 N HCl. Aliquots were then removed to determine the amount of PGE2 produced with the EIA kit. The amount of PGE2 was spectrophotometrically measured in the range of 50–6400 pg/mL at 450 nm according to the instructions of the kit using a competitive microtiter-based immunoassay method. Tests were performed with 7 concentrations of each drug to construct a dose-response curve and to determine the concentration causing a half-maximal inhibition (IC50) relative to the control values. Each series of concentrations was run in triplicate for each drug. […] The equation for a 4-parameter logistic fitting was, [drawing 1]
where a is the maximum value of the sigmoid curve; b is the Hill slope; c is (a + d)/2 (or IC50); and d is the lowest value of the sigmoid curve.
Human recombinant COX-2 isolated from baculovirus-infected Sf21 cells (Sigma-Aldrich) was used for this assay. Test articles (0.1–1000 nM) and vehicle (1% dimethyl sulfoxide in the final assay) were pre-incubated with buffer (100 mM Tris-HCl, pH 7.7) containing 0.11 U COX-2, 1 mM glutathione, 1 µM hematin, and 0.5 mM phenol for 15 minutes at 37°C. Arachidonic acid (0.3 µM) was added to initiate the reaction, and samples were incubated for an additional 5 minutes at 37°C. At the end of the incubation period, the reaction was terminated by adding 1 N HCl. The amount of PGE2 produced was determined with the EIA kit, and the IC50 of each drug for COX-2 was obtained as described.

[3] = cited from earlier work
in vivo [4] = conditions: Kbl:JW, rabbit, topical or ocular
[5] = 21 day-once daily instillation of 0.1% 14C-bromfenac; 7.2 ng/mL × 80.5% ref 35; cited from earlier work
in vivo [6] = conditions: Kbl:JW, rabbit, topical or ocular; remark: listed apart in the source
[7] = Ocular distribution after single topical instillation: retinochoroidal tissue (LC-MS/MS, non-compartmental PK); conditions: Kbl:JW, rabbit, in vivo, topical or ocular, 30 µL of 0.1% eye drops
[8] = tested on: concanavalin A-induced retinochoroidal inflammation; assay: Concanavalin A-induced intraocular inflammation, vitreous protein concentration (blood-retinal barrier breakdown); conditions: rabbit, 72 hours after intravitreal Con A; 50 µL of 0.1% eye drops 3 times/day for 4 days, or indomethacin 20 mg/kg s.c. once a day; vs saline, Dunnett's test
[9] = Simulated repeated-dose pharmacokinetics in retinochoroidal tissue compared with IC50 of COX-2; parameters: species or system rabbit
COX-2 = conditions: cited from earlier work
[10] = humans, adjunctive use of topical bromfenac ref 18; cited from earlier work
[11] = tested on: Con A-induced intraocular inflammation; parameters: method as in PMID 14635785; conditions: 0.5% nepafenac eye drops, 5 times/day regimen ref 22; cited from earlier work
[12] = repeated dosing simulated from single dose; diclofenac and amfenac (nepafenac) three/day at 8 hr interval, bromfenac two/day at 12 hr interval
human COX-1 = human COX-1 (Homo sapiens, UniProt P23219); assay: biochemical
Protocol: as §1, with “1] […]” for “1]”

retinal vascular leakage = conditions: topical, lipopolysaccharide-injected rats ref 41; cited from earlier work
[13] = sheep-derived enzymes or combination of sheep and recombinant human enzymes ref 23
[14] = sheep-derived enzymes or combination of sheep and recombinant human enzymes ref 24

Sequence of human COX-1 (P23219 24-599): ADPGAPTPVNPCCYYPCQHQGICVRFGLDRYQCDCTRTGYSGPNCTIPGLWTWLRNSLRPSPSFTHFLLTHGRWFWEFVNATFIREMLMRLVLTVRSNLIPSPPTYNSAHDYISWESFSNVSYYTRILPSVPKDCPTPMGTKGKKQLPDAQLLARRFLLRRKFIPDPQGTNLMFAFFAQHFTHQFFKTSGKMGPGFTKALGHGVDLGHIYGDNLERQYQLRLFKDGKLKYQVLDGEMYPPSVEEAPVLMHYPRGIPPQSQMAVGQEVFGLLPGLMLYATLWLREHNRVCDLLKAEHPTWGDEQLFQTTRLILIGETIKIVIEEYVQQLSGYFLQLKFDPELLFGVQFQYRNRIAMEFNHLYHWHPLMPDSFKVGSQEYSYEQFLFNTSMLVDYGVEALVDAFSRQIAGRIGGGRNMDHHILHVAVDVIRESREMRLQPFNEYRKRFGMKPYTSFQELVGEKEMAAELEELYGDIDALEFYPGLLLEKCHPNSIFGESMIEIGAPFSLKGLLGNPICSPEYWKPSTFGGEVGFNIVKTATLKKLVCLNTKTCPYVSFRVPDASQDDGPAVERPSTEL

Row | Structure (SMILES) | AUC0–8 [1] | IC50 (COX-1; [13]) | retinal PGE2 levels (retinal PGE2) | IC50 (human COX-2) | Cmax (in vivo [4]) | AUC(0-t) (in vivo [6]; in vivo) | Cmax (in vivo [6]; in vivo) | protein concentration in the vitreous body [8] | IC50 (COX-2; [13]) | further results
1 | Nc1c(CC(=O)O)cccc1C(=O)c1ccc(Br)cc1 [Bromfenac, 2-amino-3-(4-bromobenzoyl) phenylacetic acid] | […] | […] | […] | 7.45 nM | 15.8 ± 7.2 ng/g | […] | 57.8 ± 36.1 ng/mL | […] | […] | laser-induced choroidal neovascularization [2]: inhibited; inhibitory activity on COX-2, times more potent than amfenac (human COX-2; bromfenac vs amfenac): […]; inhibitory activity on COX-2, times more potent than diclofenac (human COX-2; bromfenac vs diclofenac): […]; hydrophobicity (Log P) ([3]; ref 27): […]; hydrophobicity (Log P) ([3]; ref 33): 3.22; concentration of bromfenac in retinochoroidal tissues at 8 hours after the last instillation [5]: […]; half-life (in vivo [6]; in vivo, 30 µL of 0.1% eye drops): […]; half-life [7]: 4.69 h; simulated concentration in retinochoroidal tissues at 8 hours after the last instillation ([9]; simulation model, 21 day-once daily instillation (data not shown)): […]; frequency of intravitreous ranibizumab [10]: could reduce
2 | NC(=O)Cc1cccc(C(=O)c2ccccc2)c1N [Nepafenac, nepafenac] |  |  | significantly reduced |  |  |  |  | decrease was not significant |  | inhibition of the breakdown of the blood-retinal barrier [11]: significantly inhibit; Tmax (in vivo [6]; aqueous humor, 30 µL of 0.1% eye drops): 0.5 h
3 | Nc1c(CC(=O)O)cccc1C(=O)c1ccccc1 [Amfenac, amfenac] | 41.9 ± 3.4 ng·h/g | 138 nM |  | 20.4 nM | 12.5 ± 7.2 ng/g | 131 ± 11 ng·h/mL | 25.9 ± 7.4 ng/mL |  | 1.77 nM | IC50 (COX-1; [14]): 250 nM; simulated concentration in aqueous humor relative to IC50 of COX-2 [12]: almost always higher than the IC50 of COX-2 although it was slightly less than the IC50 at the trough level; Ratio of IC50: IC50 for COX-2/IC50 for COX-1 (human COX-2; human COX-2 to COX-1): 1.3; simulated concentration in retinochoroidal tissue relative to IC50 of COX-2 ([9]; repeated dosing simulated from single dose, diclofenac and amfenac (nepafenac) three/day at 8 hr interval, bromfenac two/day at 12 hr interval): lower than the corresponding IC50 values at the troughs; also recorded: less than the IC50 of COX-2 at the trough level; IC50 (COX-2; [14]): 150 nM; IC50 (human COX-1): 15.3 nM
4 | O=C(O)Cc1ccccc1Nc1c(Cl)cccc1Cl [Diclofenac, diclofenac] | 119 ± 27 ng·h/g |  |  |  | 38.2 ± 18.1 ng/g | 972 ± 44 ng·h/mL | 300 ± 110 ng/mL | decrease was not significant |  | hydrophobicity (Log P) ([3]; ref 32): 4.31; half-life (in vivo [4]): 1.89 h; k el (in vivo [4]): 0.000102 s⁻¹; half-life (in vivo [6]; in vivo): 1.94 h; k el (in vivo [6]; in vivo): 9.94e-05 s⁻¹
5 | COc1ccc2c(c1)c(CC(=O)O)c(C)n2C(=O)c1ccc(Cl)cc1 [indomethacin] |  |  | significantly reduced |  |  |  |  | significantly reduced |  | retinal vascular leakage (retinal vascular leakage): able to prevent
